Test results: ChEMBL document CHEMBL1201862, “PubChem BioAssay data set” (2004)
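The compound was tested at five concentrations on cells cultured in 96-well plates, with a 48-hour exposure period. Abbreviation: GI50, concentration required for 50% inhibition of growth.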 Activity calls are given as the source filed them. No stated cut-off is given here; in the data, active = GI50 up to about 1.1 µM and inactive = higher.

Tests used:
Assay in all cases: NCI tumour cell line growth inhibition, 48 h
T47D = tested on: T47D
NCI-H226 = tested on: NCI-H226
OVCAR-8 = tested on: OVCAR-8
SF-539 = tested on: SF-539
SR = tested on: SR
SK-MEL-2 = tested on: SK-MEL-2
OVCAR-5 = tested on: OVCAR-5
SK-MEL-5 = tested on: SK-MEL-5
HOP-62 = tested on: HOP-62
CCRF-CEM = tested on: CCRF-CEM
HCT-15 = tested on: HCT-15
UACC-62 = tested on: UACC-62
EKVX = tested on: EKVX
MDA-MB-231 = tested on: MDA-MB-231
HOP-92 = tested on: HOP-92
UO-31 = tested on: UO-31
DU-145 = tested on: DU-145
NCI-H522 = tested on: NCI-H522
RPMI-8226 = tested on: RPMI-8226
Malme-3M = tested on: Malme-3M
TK-10 = tested on: TK-10
HL-60 = tested on: HL-60
BT-549 = tested on: BT-549
NCI-H460 = tested on: NCI-H460
HCC 2998 = tested on: HCC 2998
A498 = tested on: A498
KM12 = tested on: KM12
SN12C = tested on: SN12C
MOLT-4 = tested on: MOLT-4
SF-295 = tested on: SF-295
NCI-H23 = tested on: NCI-H23
SK-OV-3 = tested on: SK-OV-3
SF-268 = tested on: SF-268
RXF 393 = tested on: RXF 393
COLO 205 = tested on: COLO 205
U-251 = tested on: U-251
Hs-578T = tested on: Hs-578T
K562 = tested on: K562
MDA-MB-435 = tested on: MDA-MB-435
M14 = tested on: M14
UACC-257 = tested on: UACC-257
HT-29 = tested on: HT-29
NCI/ADR-RES = tested on: NCI/ADR-RES
OVCAR-4 = tested on: OVCAR-4
MCF7 = tested on: MCF7
786-0 = tested on: 786-0
CAKI-1 = tested on: CAKI-1
ACHN = tested on: ACHN
PC-3 = tested on: PC-3
MDA-N = tested on: MDA-N
IGROV-1 = tested on: IGROV-1
SNB-19 = tested on: SNB-19
OVCAR-3 = tested on: OVCAR-3
HCT-116 = tested on: HCT-116
SK-MEL-28 = tested on: SK-MEL-28
A549 = tested on: A549
SNB-75 = tested on: SNB-75
LOX IMVI = tested on: LOX IMVI
SW-620 = tested on: SW-620

Cc1cc(S(=O)(=O)NC(=C(C#N)C#N)[n+]2ccc(N(C)C)cc2)c([S-])cc1Cl
GI50 (T47D): > 100 µM (inactive)
GI50 (NCI-H226): > 100 µM (inactive)
GI50 (OVCAR-8): > 100 µM (inactive)
GI50 (SF-539): > 100 µM (inactive)
GI50 (SR): > 100 µM (inactive)
GI50 (SK-MEL-2): > 100 µM (inactive)
GI50 (OVCAR-5): > 100 µM (inactive)
GI50 (SK-MEL-5): > 100 µM (inactive)
GI50 (HOP-62): > 100 µM (inactive)
GI50 (CCRF-CEM): > 100 µM (inactive)
GI50 (HCT-15): > 100 µM
GI50 (UACC-62): > 100 µM (inactive)
GI50 (EKVX): > 100 µM (inactive)
GI50 (MDA-MB-231): > 100 µM (inactive)
GI50 (HOP-92): 28.7 µM (inactive)
GI50 (UO-31): > 100 µM (inactive)
GI50 (DU-145): > 100 µM (inactive)
GI50 (NCI-H522): 42.3 µM (inactive)
GI50 (RPMI-8226): > 100 µM (inactive)
GI50 (Malme-3M): > 100 µM (inactive)
GI50 (TK-10): > 100 µM (inactive)
GI50 (HL-60): > 100 µM (inactive)
GI50 (BT-549): > 100 µM (inactive)
GI50 (NCI-H460): > 100 µM (inactive)
GI50 (HCC 2998): > 100 µM (inactive)
GI50 (A498): > 100 µM (inactive)
GI50 (KM12): > 100 µM (inactive)
GI50 (SN12C): > 100 µM (inactive)
GI50 (MOLT-4): > 100 µM (inactive)
GI50 (SF-295): > 100 µM (inactive)
GI50 (NCI-H23): > 100 µM (inactive)
GI50 (SK-OV-3): > 100 µM (inactive)
GI50 (SF-268): > 100 µM (inactive)
GI50 (RXF 393): > 100 µM (inactive)
GI50 (COLO 205): > 100 µM (inactive)
GI50 (U-251): > 100 µM (inactive)
GI50 (Hs-578T): > 100 µM (inactive)
GI50 (K562): > 100 µM (inactive)
GI50 (MDA-MB-435): > 100 µM (inactive)
GI50 (M14): > 100 µM (inactive)
GI50 (UACC-257): > 100 µM (inactive)
GI50 (HT-29): > 100 µM (inactive)
GI50 (NCI/ADR-RES): > 100 µM (inactive)
GI50 (OVCAR-4): 99.5 µM (inactive)
GI50 (MCF7): > 100 µM (inactive)
GI50 (786-0): > 100 µM (inactive)
GI50 (CAKI-1): > 100 µM (inactive)
GI50 (ACHN): > 100 µM (inactive)
GI50 (PC-3): > 100 µM (inactive)
GI50 (MDA-N): > 100 µM (inactive)
GI50 (IGROV-1): > 100 µM (inactive)
GI50 (SNB-19): > 100 µM (inactive)
GI50 (OVCAR-3): > 100 µM (inactive)
GI50 (HCT-116): > 100 µM (inactive)
GI50 (SK-MEL-28): > 100 µM (inactive)
GI50 (A549): > 100 µM (inactive)

CCOC(=O)Nc1cc2c(c(N)n1)N=C(c1ccccc1)CN2
GI50 (T47D): 37.3 µM (inactive)
GI50 (OVCAR-8): < 0.01 µM (active)
GI50 (SF-539): < 0.01 µM (active)
GI50 (SR): < 0.01 µM (active)
GI50 (OVCAR-5): < 0.01 µM (active)
GI50 (SK-MEL-5): < 0.01 µM (active)
GI50 (HOP-62): < 0.01 µM (active)
GI50 (CCRF-CEM): < 0.01 µM (active)
GI50 (SNB-75): < 10 nM (active)
GI50 (HCT-15): < 0.01 µM
GI50 (LOX IMVI): < 10 nM (active)
GI50 (UACC-62): < 0.0001 µM (active)
GI50 (EKVX): < 0.0187 µM (active)
GI50 (MDA-MB-231): < 0.01 µM (active)
GI50 (HOP-92): < 0.01 µM (active)
GI50 (UO-31): < 0.0194 µM (active)
GI50 (DU-145): < 0.01 µM (active)
GI50 (NCI-H522): < 0.01 µM (active)
GI50 (RPMI-8226): < 0.01 µM (active)
GI50 (Malme-3M): 16.4 µM (inactive)
GI50 (SW-620): < 10 nM (active)
GI50 (TK-10): 10.7 µM (inactive)
GI50 (HL-60): < 0.0001 µM (active)
GI50 (BT-549): < 0.01 µM (active)
GI50 (NCI-H460): < 0.01 µM (active)
GI50 (HCC 2998): < 0.01 µM (active)
GI50 (A498): 0.31 µM (active)
GI50 (KM12): < 0.01 µM (active)
GI50 (SN12C): < 0.01 µM (active)
GI50 (MOLT-4): < 0.01 µM (active)
GI50 (SF-295): < 0.01 µM (active)
GI50 (NCI-H23): < 0.01 µM (active)
GI50 (SK-OV-3): 0.0527 µM (active)
GI50 (SF-268): < 0.01 µM (active)
GI50 (RXF 393): < 0.0001 µM (active)
GI50 (COLO 205): < 0.01 µM (active)
GI50 (U-251): < 0.01 µM (active)
GI50 (Hs-578T): < 0.0001 µM (active)
GI50 (K562): < 0.01 µM (active)
GI50 (MDA-MB-435): < 0.01 µM (active)
GI50 (M14): < 0.01 µM (active)
GI50 (UACC-257): 12.8 µM (inactive)
GI50 (HT-29): < 0.01 µM (active)
GI50 (NCI/ADR-RES): < 0.0001 µM (active)
GI50 (OVCAR-4): 28.1 µM (inactive)
GI50 (MCF7): 0.0317 µM (active)
GI50 (786-0): < 0.01 µM (active)
GI50 (CAKI-1): < 0.01 µM (active)
GI50 (ACHN): < 0.01 µM (active)
GI50 (PC-3): < 0.01 µM (active)
GI50 (MDA-N): < 0.01 µM (active)
GI50 (IGROV-1): < 0.01 µM (active)
GI50 (SNB-19): < 0.01 µM (active)
GI50 (OVCAR-3): < 0.01 µM (active)
GI50 (HCT-116): < 0.01 µM (active)
GI50 (SK-MEL-28): 14.5 µM (inactive)
GI50 (A549): < 0.01 µM (active)
